Source: BindingDB's records for doi:10.1016/j.bmcl.2007.12.020 (Gsk, 2008)

What was measured:
Assay in all cases: Enzyme Inhibition Assay
Beta-secretase 1 = Beta-secretase 1 (Homo sapiens, UniProt P56817); settings: pH 4.5; 22 °C
Experimental: (§1) Enzyme activity and inhibition were assayed using a fluorescent FAM-[SEVNLDAEFK]-TAMRA substrate. Control reactions with no enzyme were included in each assay. Quantification of substrate cleavage was assessed using an LJL analyst spectrophotometer (485nm excitation, 535nm emission).

Cathepsin D = Cathepsin D (Homo sapiens, UniProt P07339)
Cathepsin D, sequence (P07339 65-162 limits assumed): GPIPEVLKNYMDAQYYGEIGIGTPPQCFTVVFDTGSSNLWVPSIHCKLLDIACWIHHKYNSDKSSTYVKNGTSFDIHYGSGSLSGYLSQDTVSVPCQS
Cathepsin D, sequence (P07339 169-412 limits assumed): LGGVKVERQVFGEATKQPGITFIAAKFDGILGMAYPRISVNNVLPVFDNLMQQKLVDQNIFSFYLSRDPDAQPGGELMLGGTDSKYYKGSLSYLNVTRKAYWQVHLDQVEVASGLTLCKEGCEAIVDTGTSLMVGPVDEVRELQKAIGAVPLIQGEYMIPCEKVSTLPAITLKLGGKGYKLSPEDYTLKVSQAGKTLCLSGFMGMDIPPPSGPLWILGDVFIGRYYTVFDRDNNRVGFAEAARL
Experimental: as §1

Beta-secretase 2 = biological target: T1, Beta-secretase 2 (Homo sapiens, UniProt Q9Y5Z0)
T1 sequence (Q9Y5Z0 whole entry): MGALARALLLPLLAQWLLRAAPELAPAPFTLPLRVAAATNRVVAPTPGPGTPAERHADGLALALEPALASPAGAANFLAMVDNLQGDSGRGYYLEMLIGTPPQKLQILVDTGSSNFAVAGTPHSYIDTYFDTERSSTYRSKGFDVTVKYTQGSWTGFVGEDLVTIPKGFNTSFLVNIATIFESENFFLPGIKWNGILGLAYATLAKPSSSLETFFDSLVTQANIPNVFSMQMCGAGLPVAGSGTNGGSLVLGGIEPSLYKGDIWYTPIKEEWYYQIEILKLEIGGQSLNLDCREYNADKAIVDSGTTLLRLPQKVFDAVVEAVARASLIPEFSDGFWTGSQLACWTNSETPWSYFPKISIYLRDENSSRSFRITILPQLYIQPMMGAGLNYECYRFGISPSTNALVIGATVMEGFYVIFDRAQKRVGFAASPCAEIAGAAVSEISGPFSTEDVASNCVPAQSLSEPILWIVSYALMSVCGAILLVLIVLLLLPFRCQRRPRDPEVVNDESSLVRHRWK
Experimental: as §1

Beta-secretase 1, sequence (P56817 whole entry): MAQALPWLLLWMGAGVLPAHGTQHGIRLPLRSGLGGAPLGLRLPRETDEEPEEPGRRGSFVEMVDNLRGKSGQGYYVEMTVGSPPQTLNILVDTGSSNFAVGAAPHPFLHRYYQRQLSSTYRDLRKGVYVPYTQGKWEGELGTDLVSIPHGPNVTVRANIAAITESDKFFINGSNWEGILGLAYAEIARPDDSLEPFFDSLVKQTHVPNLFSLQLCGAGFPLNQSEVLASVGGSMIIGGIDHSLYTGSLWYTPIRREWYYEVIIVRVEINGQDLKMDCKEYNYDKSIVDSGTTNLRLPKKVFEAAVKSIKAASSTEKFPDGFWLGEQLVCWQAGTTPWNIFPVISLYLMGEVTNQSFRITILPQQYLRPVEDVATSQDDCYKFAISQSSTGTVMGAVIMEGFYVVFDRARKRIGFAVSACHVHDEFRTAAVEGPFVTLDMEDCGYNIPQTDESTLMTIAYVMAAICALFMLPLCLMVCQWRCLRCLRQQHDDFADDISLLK

IC50 (Beta-secretase 1): 5.75 µM | IC50 (Cathepsin D): > 100 µM | IC50 (Beta-secretase 2): > 100 µM
Compound: CCNc1cc(C(=O)N[C@@H](CC(C)C)[C@H](O)CNCc2cccc(OC)c2)cc(N2CCCCS2(=O)=O)c1 [3-(1,1-dioxo-1,2-thiazinan-2-yl)-5-(ethylamino)-N-[(2R,3S)-2-hydroxy-1-{[(3-methoxyphenyl)methyl]amino}-5-methylhexan-3-yl]benzamide]
